This note sets out measurements from US8653263B2 (Janssen Pharmaceutica, priority 2009, dated 2014).

The structures appear in SMILES notation.

Chain of human orexin-2 receptor (O43614 whole entry): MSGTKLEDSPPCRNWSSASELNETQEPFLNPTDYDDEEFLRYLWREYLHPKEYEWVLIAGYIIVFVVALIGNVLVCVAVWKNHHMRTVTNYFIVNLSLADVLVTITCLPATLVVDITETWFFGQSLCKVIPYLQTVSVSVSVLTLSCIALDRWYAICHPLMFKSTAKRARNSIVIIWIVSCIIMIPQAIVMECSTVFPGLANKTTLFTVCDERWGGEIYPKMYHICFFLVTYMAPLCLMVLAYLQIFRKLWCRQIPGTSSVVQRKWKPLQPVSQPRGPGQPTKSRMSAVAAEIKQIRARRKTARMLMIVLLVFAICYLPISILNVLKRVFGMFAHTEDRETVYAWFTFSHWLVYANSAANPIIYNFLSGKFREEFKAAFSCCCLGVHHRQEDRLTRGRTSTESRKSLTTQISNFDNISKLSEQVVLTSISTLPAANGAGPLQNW

The test addresses human orexin-2 receptor (Homo sapiens (Human), UniProt O43614). The test can be described thus: Human orexin 2 receptor radioligand binding ([3H]-EMPA competition). The conditions noted are these: HEK293 cells stably expressing human orexin-2 receptor; [3H]-EMPA 5 nM final; apparent Ki=IC50/(1+C/Kd), Kd=2 nM; read-out: OR 2 Ki.
As for `Cc1cc(N2CC3CN(C(=O)c4c(F)cccc4-c4ncccn4)CC3C2)nc(C(F)(F)F)n1` (stereo not shown) [Example 117, 2-[(2-Fluoro-6-pyrimidin-2-ylphenyl)carbonyl]-5-[6-methyl-2-(trifluoromethyl)pyrimidin-4-yl]octahydropyrrolo[3,4-c]pyrrole], the Ki came to 24 nM.

As to `Cc1cc(N(C)C)nc(N2CC3CN(C(=O)c4ccccc4-n4nccn4)CC3C2)n1` (stereo not shown) [Example 119, N,N,6-Trimethyl-2-[5-{[2-(2H-1,2,3-triazol-2-yl)phenyl]carbonyl}hexahydropyrrolo[3,4-c]pyrrol-2(1H)-yl]pyrimidin-4-amine], the Ki was 51 nM.

Take `Cc1cc(N2CC3CN(C(=O)c4ccccc4-n4nccn4)CC3C2)nc(N(C)C)n1` (stereo not shown) [Example 120, N,N,4-Trimethyl-6-[5-{[2-(2H-1,2,3-triazol-2-yl)phenyl]carbonyl}hexahydropyrrolo[3,4-c]pyrrol-2(1H)-yl]pyrimidin-2-amine]: the Ki is 71 nM.

Take `CN(C)c1nc(N2CC3CN(C(=O)c4ccccc4-n4nccn4)CC3C2)cc(C(F)(F)F)n1` (stereo not shown) [Example 121, N,N-Dimethyl-4-[5-{[2-(2H-1,2,3-triazol-2-yl)phenyl]carbonyl}hexahydropyrrolo[3,4-c]pyrrol-2(1H)-yl]-6-(trifluoromethyl)pyrimidin-2-amine]: the Ki was 15 nM.

As to `Cc1cc(N2CC3CN(C(=O)c4ccccc4-n4nccn4)CC3C2)nc(C)n1` (stereo not shown) [Example 122, 2-(2,6-Dimethylpyrimidin-4-yl)-5-{[2-(2H-1,2,3-triazol-2-yl)phenyl]carbonyl}octahydropyrrolo[3,4-c]pyrrole], the Ki was found to be 865 nM.

For `Cc1ccc(-n2nccn2)c(C(=O)N2CC3CN(c4nc(C)cnc4C)CC3C2)c1` (stereo not shown) [Example 123, [5-(3,6-Dimethyl-pyrazin-2-yl)-hexahydro-pyrrolo[3,4-c]pyrrol-2-yl]-(5-methyl-2-[1,2,3]triazol-2-yl-phenyl)-methanone], the Ki worked out at 44 nM.

For the compound `Cc1cc(N(C)C)nc(N2CC3CN(C(=O)c4cc(F)ccc4-n4nccn4)CC3C2)n1` (stereo not shown) [Example 124, 2-[5-{[5-Fluoro-2-(2H-1,2,3-triazol-2-yl)phenyl]carbonyl}hexahydropyrrolo[3,4-c]pyrrol-2(1H)-yl]-N,N,6-trimethylpyrimidin-4-amine], the Ki is 422 nM.

In the case of `COc1ccc(N2CC3CN(C(=O)c4ccccc4-c4cccs4)CC3C2)nc1` (stereo not shown) [Example 125, 2-(5-Methoxypyridin-2-yl)-5-[(2-thiophen-2-ylphenyl)carbonyl]octahydropyrrolo[3,4-c]pyrrole], the Ki worked out at 901 nM.

For `CCOc1ccc2ccccc2c1C(=O)N1CC2CN(c3nccc(-c4ccccc4)n3)CC2C1` (stereo not shown) [Example 126, 2-[(2-Ethoxynaphthalen-1-yl)carbonyl]-5-(4-phenylpyrimidin-2-yl)octahydro pyrrolo[3,4-c]pyrrole], the Ki was 95 nM.

Take `Cc1ccc(-n2nccn2)c(C(=O)N2CC3CN(c4nccc(-c5ccccc5)n4)CC3C2)c1` (stereo not shown) [Example 127, 2-{[5-Methyl-2-(2H-1,2,3-triazol-2-yl)phenyl]carbonyl}-5-(4-phenylpyrimidin-2-yl)octahydropyrrolo[3,4-c]pyrrole]: the Ki stood at 55 nM.

Consider `COc1cc(OC)nc(N2CC3CN(C(=O)c4cc(C)ccc4-n4nccn4)CC3C2)n1` (stereo not shown) [Example 129, 2-(4,6-Dimethoxypyrimidin-2-yl)-5-{[5-methyl-2-(2H-1,2,3-triazol-2-yl)phenyl]carbonyl}octahydropyrrolo[3,4-c]pyrrole], for which the Ki stood at 111 nM.

As to `O=C(c1ccccc1-n1nccn1)N1CC2CN(c3nccc(-c4ccccc4)n3)CC2C1` (stereo not shown) [Example 131, 2-(4-Phenylpyrimidin-2-yl)-5-{[2-(2H-1,2,3-triazol-2-yl)phenyl]carbonyl}octahydro pyrrolo[3,4-c]pyrrole], the Ki was found to be 75 nM.

Regarding `Cc1cc(C)nc(N2CC3CN(C(=O)c4nc(C)sc4-c4ccccc4F)CC3C2)n1` (stereo not shown) [Example 132, 2-(4,6-Dimethylpyrimidin-2-yl)-5-{[5-(2-fluorophenyl)-2-methyl-1,3-thiazol-4-yl]carbonyl}octahydropyrrolo[3,4-c]pyrrole], the Ki is 125 nM.

Consider `Cc1cccc(N2CC3CN(C(=O)c4ccccc4-c4cccs4)CC3C2)n1` (stereo not shown) [Example 134, 2-(6-Methylpyridin-2-yl)-5-[(2-thiophen-2-ylphenyl)carbonyl]octahydropyrrolo[3,4-c]pyrrole], for which the Ki is 102 nM.

Take `Cc1ccnc(N2CC3CN(C(=O)c4ccccc4-n4nccn4)CC3C2)n1` (stereo not shown) [Example 135, 2-(4-Methylpyrimidin-2-yl)-5-{[2-(2H-1,2,3-triazol-2-yl)phenyl]carbonyl}octahydro pyrrolo[3,4-c]pyrrole]: the Ki stood at 90 nM.

For `Cc1ccnc(N2CC3CN(C(=O)c4ccccc4-c4cccs4)CC3C2)c1` (stereo not shown) [Example 136, 2-(4-Methylpyridin-2-yl)-5-[(2-thiophen-2-ylphenyl)carbonyl]octahydropyrrolo[3,4-c]pyrrole], the Ki stood at 104 nM.

For the compound `COc1cccc(N2CC3CN(C(=O)c4ccccc4-c4cccs4)CC3C2)n1` (stereo not shown) [Example 137, 2-(6-Methoxypyridin-2-yl)-5-[(2-thiophen-2-ylphenyl)carbonyl]octahydro pyrrolo[3,4-c]pyrrole], the Ki came out at 50 nM.

Take `COc1cc(OC)nc(N2CC3CN(C(=O)c4ccccc4-c4cccs4)CC3C2)n1` (stereo not shown) [Example 138, 2-(4,6-Dimethoxypyrimidin-2-yl)-5-[(2-thiophen-2-ylphenyl)carbonyl]octahydro pyrrolo[3,4-c]pyrrole]: the Ki is 30 nM.

`O=C(c1ccccc1-c1cccs1)N1CC2CN(c3nc4ccccc4o3)CC2C1` (stereo not shown) [Example 139, 2-{5-[(2-Thiophen-2-ylphenyl)carbonyl]hexahydropyrrolo[3,4-c]pyrrol-2(1H)-yl}-1,3-benzoxazole]: the Ki turned out to be 63 nM.

Consider `O=C(c1ccccc1-c1cccs1)N1CC2CN(c3ncccc3C(F)(F)F)CC2C1` (stereo not shown) [Example 140, 2-[(2-Thiophen-2-ylphenyl)carbonyl]-5-[3-(trifluoromethyl)pyridin-2-yl]octahydro pyrrolo[3,4-c]pyrrole], for which the Ki amounted to 119 nM.

Turning to `O=C(c1ccccc1-c1nnc[nH]1)N1CC2CN(c3nccc(-c4ccccc4)n3)CC2C1` (stereo not shown) [Example 141, [5-(4-Phenyl-pyrimidin-2-yl)-hexahydro-pyrrolo[3,4-c]pyrrol-2-yl]-[2-(4H-[1,2,4]triazol-3-yl)-phenyl]-methanone], the Ki was 1030 nM.

For `COc1cc(OC)nc(N2CC3CN(C(=O)c4nc(C)sc4-c4ccccc4F)CC3C2)n1` (stereo not shown) [Example 142, 2-(4,6-Dimethoxypyrimidin-2-yl)-5-{[5-(2-fluorophenyl)-2-methyl-1,3-thiazol-4-yl]carbonyl}octahydropyrrolo[3,4-c]pyrrole], the Ki is 315 nM.

For the compound `O=C(c1ccccc1-n1nccn1)N1CC2CN(c3nccc(-c4cccs4)n3)CC2C1` (stereo not shown) [Example 143, 2-(4-Thiophen-2-ylpyrimidin-2-yl)-5-{[2-(2H-1,2,3-triazol-2-yl)phenyl]carbonyl}octahydropyrrolo[3,4-c]pyrrole], the Ki was found to be 81 nM.

`O=C(c1ccccc1-n1nccn1)N1CC2CN(c3nc4ccccc4o3)CC2C1` (stereo not shown) [Example 144, 2-[5-{[2-(2H-1,2,3-Triazol-2-yl)phenyl]carbonyl}hexahydropyrrolo[3,4-c]pyrrol-2(1H)-yl]-1,3-benzoxazole]: the Ki is 87 nM.

Turning to `CCOc1ccc2ccccc2c1C(=O)N1CC2CN(c3cnc4ccccc4n3)CC2C1` (stereo not shown) [Example 145, 2-{5-[(2-Ethoxynaphthalen-1-yl)carbonyl]hexahydropyrrolo[3,4-c]pyrrol-2(1H)-yl}quinoxaline], the Ki came to 45 nM.

Turning to `O=C(c1cc(F)ccc1-c1ncccn1)N1CC2CN(c3cnc4ccccc4n3)CC2C1` (stereo not shown) [Example 146, 2-{5-[(5-Fluoro-2-pyrimidin-2-ylphenyl)carbonyl]hexahydropyrrolo[3,4-c]pyrrol-2(1H)-yl}quinoxaline], the Ki is 27 nM.

In the case of `CCOc1cccc(N2CC3CN(C(=O)c4ccccc4-n4nccn4)CC3C2)n1` (stereo not shown) [Example 147, 2-(6-Ethoxypyridin-2-yl)-5-{[2-(2H-1,2,3-triazol-2-yl)phenyl]carbonyl}octahydro pyrrolo[3,4-c]pyrrole], the Ki came to 85 nM.

As for `O=C(c1cc(F)ccc1-c1ncccn1)N1CC2CN(c3nccc(C(F)(F)F)n3)CC2C1` (stereo not shown) [Example 148, 2-[(5-Fluoro-2-pyrimidin-2-ylphenyl)carbonyl]-5-[4-(trifluoromethyl)pyrimidin-2-yl]octahydropyrrolo[3,4-c]pyrrole], the Ki came out at 129 nM.

Turning to `O=C(c1ccccc1-n1nccn1)N1CC2CN(c3cnc4ccccc4n3)CC2C1` (stereo not shown) [Example 149, 2-[5-{[2-(2H-1,2,3-Triazol-2-yl)phenyl]carbonyl}hexahydropyrrolo[3,4-c]pyrrol-2(1H)-yl]quinoxaline], the Ki was found to be 173 nM.

For `COc1ccnc(N2CC3CN(C(=O)c4cc(F)ccc4-c4ncccn4)CC3C2)n1` (stereo not shown) [Example 150, 2-[(5-Fluoro-2-pyrimidin-2-ylphenyl)carbonyl]-5-(4-methoxypyrimidin-2-yl)octahydropyrrolo[3,4-c]pyrrole], the Ki was determined as 92 nM.

As to `O=C(c1ccccc1-n1nccn1)N1CC2CN(c3nccc(-c4ccco4)n3)CC2C1` (stereo not shown) [Example 151, 2-(4-Furan-2-ylpyrimidin-2-yl)-5-{[2-(2H-1,2,3-triazol-2-yl)phenyl]carbonyl}octahydropyrrolo[3,4-c]pyrrole], the Ki was 184 nM.

Take `O=C(c1ccccc1-n1nccn1)N1CC2CN(c3ccc(F)cn3)CC2C1` (stereo not shown) [Example 152, 2-(5-Fluoropyridin-2-yl)-5-{[2-(2H-1,2,3-triazol-2-yl)phenyl]carbonyl}octahydro pyrrolo[3,4-c]pyrrole]: the Ki came out at 125 nM.

For the compound `O=C(c1ccccc1-n1nccn1)N1CC2CN(c3nccc(C(F)(F)F)n3)CC2C1` (stereo not shown) [Example 153, 2-{[2-(2H-1,2,3-Triazol-2-yl)phenyl]carbonyl}-5-[4-(trifluoromethyl)pyrimidin-2-yl]octahydropyrrolo[3,4-c]pyrrole], the Ki worked out at 75 nM.

In the case of `COc1ccnc(N2CC3CN(C(=O)c4ccccc4-c4ncn[nH]4)CC3C2)n1` (stereo not shown) [Example 154, 2-(4-Methoxypyrimidin-2-yl)-5-{[2-(1H-1,2,4-triazol-5-yl)phenyl]carbonyl}octahydropyrrolo[3,4-c]pyrrole], the Ki was found to be 241 nM.
